Values quoted from earlier work as cited in US11938222B2, “Pregabalin sustained release composition and method for preparing the same” (priority 2018, dated 2024).

Settings: gastrointestinal tract, humans

## CC(C)C[C@H](CN)CC(=O)O [pregabalin, (S)-3-aminomethyl-5-methylhexanoic acid]
  average absorption window: ≤ 6 h
